Data taken from PubChem BioAssay AID1259407 (Chemical Carcinogenesis Research Information System (CCRIS), 2018).
Calls of active or inactive are those of the source. How the calls were made is not given here.

Test system: CCRIS mutagenicity, Ames/micronucleus/aberration tests
Experiment: CCRIS mutagenicity studies
[1] = Test System: AMES SALMONELLA TYPHIMURIUM, Strain/Indicator: TA98, Metabolic Activation: RAT, LIVER, S-9, AROCLOR 1254, Method: STANDARD PLATE
[2] = Test System: AMES SALMONELLA TYPHIMURIUM, Strain/Indicator: TA100, Metabolic Activation: RAT, LIVER, S-9, AROCLOR 1254, Method: STANDARD PLATE

For `Nc1ccc2c(N)c3ccccc3nc2c1`, the mutagenic call (Test System: AMES SALMONELLA TYPHIMURIUM, Strain/Indicator: TA1535, Metabolic Activation: NONE, Method: PREINCUBATION) was “inactive; negative”, the mutagenic call (Test System: AMES SALMONELLA TYPHIMURIUM, Strain/Indicator: TA1535, Metabolic Activation: RAT, LIVER, S-9, TETRACHLOROBIPHENYL, Method: PREINCUBATION) was “inactive; negative” and the mutagenic call (Test System: AMES SALMONELLA TYPHIMURIUM, Strain/Indicator: TA1537, Metabolic Activation: NONE, Method: PREINCUBATION) was “active; positive”. The mutagenic call (Test System: AMES SALMONELLA TYPHIMURIUM, Strain/Indicator: TA1537, Metabolic Activation: RAT, LIVER, S-9, TETRACHLOROBIPHENYL, Method: PREINCUBATION) was “active; positive”, the mutagenic call (Test System: AMES SALMONELLA TYPHIMURIUM, Strain/Indicator: TA1538, Metabolic Activation: NONE, Method: PREINCUBATION) was “active; positive” and the mutagenic call (Test System: AMES SALMONELLA TYPHIMURIUM, Strain/Indicator: TA1538, Metabolic Activation: RAT, LIVER, S-9, TETRACHLOROBIPHENYL, Method: PREINCUBATION) was “active; positive”. For the same molecule, the mutagenic call (Test System: AMES SALMONELLA TYPHIMURIUM, Strain/Indicator: TA1977, Metabolic Activation: NONE, Method: PREINCUBATION) was “active; positive”, the mutagenic call (Test System: AMES SALMONELLA TYPHIMURIUM, Strain/Indicator: TA1977, Metabolic Activation: RAT, LIVER, S-9, TETRACHLOROBIPHENYL, Method: PREINCUBATION) was “active; positive” and the mutagenic call (Test System: AMES SALMONELLA TYPHIMURIUM, Strain/Indicator: TA1978, Metabolic Activation: NONE, Method: PREINCUBATION) was “inactive; negative”. For the same molecule, the mutagenic call (Test System: AMES SALMONELLA TYPHIMURIUM, Strain/Indicator: TA1978, Metabolic Activation: RAT, LIVER, S-9, TETRACHLOROBIPHENYL, Method: PREINCUBATION) was “inactive; negative”.
With `CCCCOS(=O)(=O)OCCCC` the mutagenic call (End Point: In vitro micronucleus, Test System: Chinese Hamster Ovary (CHO-WBL) cells, Metabolic Activation: None) was “active; positive (p<0.01)”.
`CN(C)c1ccc2cc3ccc(N(C)C)cc3nc2c1` was tested, and the mutagenic call [1] was “active; positive”, the mutagenic call [2] was “active; positive” and the mutagenic call (Test System: AMES SALMONELLA TYPHIMURIUM, Strain/Indicator: TA1537, Metabolic Activation: RAT, LIVER, S-9, AROCLOR 1254, Method: STANDARD PLATE) was “active; positive”. For the same molecule, the mutagenic call (Test System: CHINESE HAMSTER OVARY, Strain/Indicator: CHO-K1-BH4 (HGPRT)/6-THIOGUANINE, Metabolic Activation: S-9, Method: SUSPENSION/PLATE) was “active; positive”, the mutagenic call (Test System: E. COLI, Strain/Indicator: WP2, Metabolic Activation: NONE, Method: PREINCUBATION) was “inactive; negative” and the mutagenic call (Test System: MOUSE LYMPHOMA, Strain/Indicator: L5178Y (TK+/TK-), Metabolic Activation: S-9, Method: SUSPENSION/PLATE) was “active; positive”.
With `NC(Cn1ccnc1)C(=O)O` (stereo not drawn) the mutagenic call (Test System: AMES SALMONELLA TYPHIMURIUM, Strain/Indicator: TA98, Metabolic Activation: NONE) was “inactive; negative”, the mutagenic call (Test System: AMES SALMONELLA TYPHIMURIUM, Strain/Indicator: TA100, Metabolic Activation: NONE) was “inactive; negative” and the mutagenic call (Test System: AMES SALMONELLA TYPHIMURIUM, Strain/Indicator: TA102, Metabolic Activation: NONE) was “inactive; negative”. For the same molecule, the mutagenic call (Test System: AMES SALMONELLA TYPHIMURIUM, Strain/Indicator: TA1535, Metabolic Activation: NONE) was “inactive; negative”, the mutagenic call (Test System: AMES SALMONELLA TYPHIMURIUM, Strain/Indicator: TP2428, Metabolic Activation: NONE) was “inactive; negative” and the mutagenic call (Test System: E. COLI, Strain/Indicator: WP2 UVRA (PKM101), Metabolic Activation: NONE) was “active; positive”.
In the case of `CSCC[C@H](NC(=O)COc1ccc(Cl)cc1Cl)C(=O)O`, the mutagenic call (Test System: AMES SALMONELLA TYPHIMURIUM, Strain/Indicator: TA97, Metabolic Activation: RAT, LIVER, S-9, AROCLOR 1254, Method: STANDARD PLATE) is reported as “inactive; negative”, the mutagenic call (Test System: AMES SALMONELLA TYPHIMURIUM, Strain/Indicator: TA97, Metabolic Activation: WOODCHUCK, LIVER, S-9, 3-METHYLCHOLANTHRENE, Method: STANDARD PLATE) is reported as “inactive; negative” and the mutagenic call [1] is reported as “inactive; negative”. The mutagenic call (Test System: AMES SALMONELLA TYPHIMURIUM, Strain/Indicator: TA98, Metabolic Activation: WOODCHUCK, LIVER, S-9, 3-METHYLCHOLANTHRENE, Method: STANDARD PLATE) was “inactive; negative”, the mutagenic call [2] was “inactive; negative” and the mutagenic call (Test System: AMES SALMONELLA TYPHIMURIUM, Strain/Indicator: TA100, Metabolic Activation: WOODCHUCK, LIVER, S-9, 3-METHYLCHOLANTHRENE, Method: STANDARD PLATE) was “inactive; negative”. For the same molecule, the mutagenic call (Test System: AMES SALMONELLA TYPHIMURIUM, Strain/Indicator: TA1535, Metabolic Activation: RAT, LIVER, S-9, AROCLOR 1254, Method: STANDARD PLATE) was “inactive; negative”, the mutagenic call (Test System: AMES SALMONELLA TYPHIMURIUM, Strain/Indicator: TA1535, Metabolic Activation: WOODCHUCK, LIVER, S-9, 3-METHYLCHOLANTHRENE, Method: STANDARD PLATE) was “inactive; negative” and the mutagenic call (Test System: AMES SALMONELLA TYPHIMURIUM, Strain/Indicator: TA1538, Metabolic Activation: RAT, LIVER, S-9, AROCLOR 1254, Method: STANDARD PLATE) was “inactive; negative”. The mutagenic call (Test System: AMES SALMONELLA TYPHIMURIUM, Strain/Indicator: TA1538, Metabolic Activation: WOODCHUCK, LIVER, S-9, 3-METHYLCHOLANTHRENE, Method: STANDARD PLATE) was “inactive; negative”.
